According to patent US20060110790A1, “Expression system for large functional proteins” (priority 2002, published 2006):

Target: T1, individually expressed N half of ABCR containing 1D4 epitope tag (N*) (Homo sapiens, UniProt P78363)
T1 construct: The cDNAs coding for the N-half (amino acids 1-1325) and C-half (amino acids 1326-2273) of ABCR; made in house; host or cells: COS-1 cells
T1 sequence (P78363 1-1325): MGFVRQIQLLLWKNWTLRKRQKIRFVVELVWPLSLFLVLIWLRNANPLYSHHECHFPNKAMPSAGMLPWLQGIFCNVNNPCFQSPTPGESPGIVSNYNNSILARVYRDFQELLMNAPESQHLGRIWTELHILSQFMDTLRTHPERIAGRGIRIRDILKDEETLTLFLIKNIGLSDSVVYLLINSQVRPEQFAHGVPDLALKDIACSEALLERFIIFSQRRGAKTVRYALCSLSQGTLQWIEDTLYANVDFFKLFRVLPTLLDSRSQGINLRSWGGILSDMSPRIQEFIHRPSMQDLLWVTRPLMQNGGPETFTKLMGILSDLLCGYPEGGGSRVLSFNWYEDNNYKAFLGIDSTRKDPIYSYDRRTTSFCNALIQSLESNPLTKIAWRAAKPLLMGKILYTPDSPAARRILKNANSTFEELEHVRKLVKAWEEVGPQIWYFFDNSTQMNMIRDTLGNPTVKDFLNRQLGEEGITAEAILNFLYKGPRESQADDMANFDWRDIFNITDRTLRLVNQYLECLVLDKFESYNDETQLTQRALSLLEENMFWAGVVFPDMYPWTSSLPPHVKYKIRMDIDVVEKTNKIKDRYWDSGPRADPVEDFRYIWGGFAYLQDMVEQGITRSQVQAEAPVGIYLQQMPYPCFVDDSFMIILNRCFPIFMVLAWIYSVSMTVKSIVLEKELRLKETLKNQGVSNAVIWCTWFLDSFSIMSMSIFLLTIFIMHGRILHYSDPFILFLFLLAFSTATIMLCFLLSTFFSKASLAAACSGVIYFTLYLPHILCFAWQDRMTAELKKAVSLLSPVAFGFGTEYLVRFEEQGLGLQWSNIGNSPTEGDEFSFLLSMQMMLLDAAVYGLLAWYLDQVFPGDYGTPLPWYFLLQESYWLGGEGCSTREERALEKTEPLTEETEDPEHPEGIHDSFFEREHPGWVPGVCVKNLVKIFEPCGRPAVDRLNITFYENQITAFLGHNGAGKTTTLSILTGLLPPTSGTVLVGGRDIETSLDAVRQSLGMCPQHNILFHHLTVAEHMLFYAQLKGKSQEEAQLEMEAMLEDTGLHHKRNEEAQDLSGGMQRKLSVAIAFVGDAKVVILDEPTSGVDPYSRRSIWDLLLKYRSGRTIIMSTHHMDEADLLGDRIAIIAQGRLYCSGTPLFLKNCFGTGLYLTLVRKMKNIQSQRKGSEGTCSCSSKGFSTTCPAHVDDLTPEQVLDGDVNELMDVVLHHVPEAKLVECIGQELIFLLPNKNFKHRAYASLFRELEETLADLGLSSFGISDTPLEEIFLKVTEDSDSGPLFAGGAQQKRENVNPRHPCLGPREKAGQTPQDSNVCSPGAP
Experiment: Retinal-stimulated ATPase activity of purified protein reconstituted in lipid vesicles
Assay type: biochemical
Details: individually expressed in COS-1 cells, 1D4-tagged, 50 μM [α32P]ATP
Procedure: Membranes (from two 10 cm dishes) were solubilized in 0.5 ml of 1% Triton-X100 in Buffer A (140 mM NaCl, 20 mM Tris-HCl, pH 7.4) for 20 min on ice. For ATPase assays, the membrane preparation step was omitted and the cell suspension was solubilized directly in Buffer B (10 mg/ml soybean phospholipids, 10% glycerol, 1 mM dithiothreitol, 100 mM NaCl, 3 mM MgCl2, 50 mM NaHEPES, pH 7.4) containing 18 mM CHAPS. The supernatant after a 10 min centrifugation at 40,000 rpm (TLA100.4 rotor) was mixed with 50 μl Rim3F4 Sepharose 2B for 1 h at 4° C. The beads were washed 6 times in Buffer A containing 0.2% Triton X-100 or Buffer B containing 10 mM CHAPS and eluted with 4% SDS (for electrophoresis) or 0.2 mg/ml Rim3F4 peptide (for reconstitution and determination of ATPase activity). Purified protein (24 μl) was incubated with 6 μl of 50 mg/ml lipid (1:1 mixture of dioleoylphosphatidylethanolamine and brain polar lipid, by weight) and 3 μl n-octylglucoside for 30 min on ice. The mixture was diluted rapidly with 200 μl of Buffer C (1 mM dithiothreitol, 140 mM NaCl, 25 mM NaHEPES, pH 7.4) and passed through a 200 μl Extracti-gel column (Pierce). The flow-through containing the reconstituted protein was used for determination of ATPase activity.
ATPase activity was measured as described previously (Ahn, J., Wong, J. T., and Molday, R. S. (2000) J Biol Chem 275(27), 20399-405) using 50 μM [α^32P]ATP and thin layer chromatography. The all-trans retinal concentration was determined spectrophotometrically (λ383 nm=42.88 mM^−1 cm^−1). Protein concentration was estimated from the eluate before reconstitution by laser densitometry of Coomassie blue stained gels using bovine serum albumin as a standard. […] Direct protein measurements after reconstitution by densitometry of Western blots was about half of that in the eluate. […]
ATPase Activity of Expressed N and C Halves—The basal and retinal activated ATPase activity of full-length ABCR and the N and C halves individually or co-expressed in COS-1 cells was determined after immunoaffinity purification and reconstitution into lipid vesicles. […]

- stimulation of ATPase activity: not stimulated
Structure (SMILES): CC1=C(/C=C/C(C)=C/C=C/C(C)=C/C=O)C(C)(C)CCC1 [all-trans retinal]
